Source: US20260191835A1, “COMBINATIONS COMPRISING A MENIN-MLL INHIBITOR AND AT LEAST ONE OTHER THERAPEUTIC AGENT” (JANSSEN PHARMACEUTICA NV, priority 2022, published 2026)

Test system: MOLM-13 cells
Test: In vitro proliferation (Cell Titer Glo, 6 days) of Compound 51 in combination with gilteritinib, midostaurin, idarubicin or decitabine, MOLM-13
Format: cell-based, human
Parameters: key to maxR call (synergy/antagonism), combination with Gilteritinib on MOLM-13 cell proliferation / Synergy/antagonism call (maxR test), MOLM-13 Cell Proliferation: synergy is indicated by “**”; antagonism is indicated by “*”; no asterisk: absence of any asterisk indicates an additive effect
Description: 3) In Vitro Proliferation—Menin-MLL Inhibitor in Combination with FLT3 Inhibitor (Gilteritinib or Midostaurin), DNA Intercalating Agent (Idarubicin) or Hypomethylating Agent (Decitabine)
The effect of Compound 51 in combination with gilteritinib, midostaurin, idarubicin or decitabine was determined in proliferation assays.
AML cell lines MOLM-13, OCI-AML3 and MV4-11 were purchased from DSMZ. MOLM-13 were grown in RPMI medium supplemented with 10% Fetal Bovine Serum (FBS) and 1% penicillin/streptomycin. MV4-11 cells were grown in IMDM medium supplemented with 10% FBS and 1% penicillin/streptomycin. OCI-AML3 cells were cultured in 80-90% alpha-MEM (with or without ribo- and deoxyribonucleosides)+10-20% FBS. All cell lines were cultured at 37° C. in 5% CO2 atmosphere.
AML cell lines (10-20×10^3 cells/well) were seeded in 96-well plates and grown for 6 days in serum (10%)-containing medium in the presence or absence of inhibitors at the indicated concentrations. Proliferation was analyzed by means of a Cell Titer Glo assay using the […] (Promega, Madison, WI, USA), according to the manufacturer's instructions. Data are mean with standard deviation from two to four independent experiments in technical triplicates.
R-based Biochemically Intuitive Generalized Loewe (BIGL) model implemented with a highest single agent (HSA) null model. Specifically, the BIGL methodology was applied to calculate drug-drug interactions (Van der Borght, K., Tourny, A., Bagdziunas, R. et al. BIGL: Biochemically Intuitive Generalized Loewe null model for prediction of the expected combined effect compatible with partial agonism and antagonism. Sci Rep 7, 17935 (2017); Thas, O., Tourny, A., Verbist, B., Hawinkel, S., Nazarov, M., Mutambanengwe, K., & Bijnens, L. Statistical detection of synergy: New methods and a comparative study. Pharmaceutical Statistics (2021)).
Synergy matrix results of the BIGL analysis of the cell line data with HSA as mean model calculated on the basis of the cellular metabolic activity using Cell Titer-Glo assay. Bootstrap confidence intervals are indicated. Effect sizes and their confidence intervals are shown. […] No significant average effect if zero is included in the interval.

[1] = Compound 51 0.01 μm, Gilteritinib 0.01 μM
[2] = Compound 51 0.05 μm + Decitabine 0.015 μM
[3] = Compound 51 0.05 μm + Decitabine 0.15 μM
[4] = Compound 51 0.05 μm + Idarubicin 0.001 μM
[5] = Compound 51 0.05 μm + Midostaurin 0.006 μM

CC(=O)N1CCC(CN2CC[C@@H](Cc3cn(-c4ccc(F)cc4C(=O)N(C)C(C)C)c4cncc(C)c34)C2)CC1 [Compound 51]
Effect size (BIGL, HSA null model), MOLM-13 Cell Proliferation (Compound 51 0.0001 μm + Idarubicin 0.0005 μM): −0.05 | Effect size (BIGL, HSA null model), MOLM-13 Cell Proliferation (Compound 51 0.0001 μm + Idarubicin 0.001 μM): −0.02 | Effect size (BIGL, HSA null model), MOLM-13 Cell Proliferation (Compound 51 0.0001 μm + Idarubicin 0.0025 μM): 0.07 | Effect size (BIGL, HSA null model), MOLM-13 Cell Proliferation (Compound 51 0.0001 μm + Idarubicin 0.005 μM): −0.1 | Effect size (BIGL, HSA null model), MOLM-13 Cell Proliferation (Compound 51 0.0001 μm + Idarubicin 0.05 μM): 0.03 | Effect size (BIGL, HSA null model), MOLM-13 Cell Proliferation (Compound 51 0.0001 μm + Idarubicin 0.5 μM): 0.02 | Effect size (BIGL, HSA null model), MOLM-13 Cell Proliferation (Compound 51 0.0001 μm + Midostaurin 0.0012 μM): −0.07 | Effect size (BIGL, HSA null model), MOLM-13 Cell Proliferation (Compound 51 0.0001 μm + Midostaurin 0.006 μM): −0.02 | Effect size (BIGL, HSA null model), MOLM-13 Cell Proliferation (Compound 51 0.0001 μm + Midostaurin 0.025 μM): 0.05 | Effect size (BIGL, HSA null model), MOLM-13 Cell Proliferation (Compound 51 0.0001 μm + Midostaurin 0.05 μM): −0.06 | Effect size (BIGL, HSA null model), MOLM-13 Cell Proliferation (Compound 51 0.0001 μm + Midostaurin 0.1 μM): −0.04 | Effect size (BIGL, HSA null model), MOLM-13 Cell Proliferation (Compound 51 0.0001 μm + Midostaurin 0.5 μM): −0.02 | Effect size (BIGL, HSA null model), MOLM-13 Cell Proliferation (Compound 51 0.001 μm + Decitabine 0.0015 μM): −0.03 | Effect size (BIGL, HSA null model), MOLM-13 Cell Proliferation (Compound 51 0.001 μm + Decitabine 0.015 μM): −0.07 | Effect size (BIGL, HSA null model), MOLM-13 Cell Proliferation (Compound 51 0.001 μm + Decitabine 0.15 μM): −0.03 | Effect size (BIGL, HSA null model), MOLM-13 Cell Proliferation (Compound 51 0.001 μm + Decitabine 1.5 μM): −0.03 | Effect size (BIGL, HSA null model), MOLM-13 Cell Proliferation (Compound 51 0.001 μm + Decitabine 3 μM): −0.02 | Effect size (BIGL, HSA null model), MOLM-13 Cell Proliferation (Compound 51 0.001 μm + Idarubicin 0.0005 μM): −0.03 | Effect size (BIGL, HSA null model), MOLM-13 Cell Proliferation (Compound 51 0.001 μm + Idarubicin 0.001 μM): −0.07 | Effect size (BIGL, HSA null model), MOLM-13 Cell Proliferation (Compound 51 0.001 μm + Idarubicin 0.0025 μM): 0.04 | Effect size (BIGL, HSA null model), MOLM-13 Cell Proliferation (Compound 51 0.001 μm + Idarubicin 0.005 μM): −0.1 | Effect size (BIGL, HSA null model), MOLM-13 Cell Proliferation (Compound 51 0.001 μm + Idarubicin 0.05 μM): 0.02 | Effect size (BIGL, HSA null model), MOLM-13 Cell Proliferation (Compound 51 0.001 μm + Idarubicin 0.5 μM): 0.02 | Effect size (BIGL, HSA null model), MOLM-13 Cell Proliferation (Compound 51 0.001 μm + Midostaurin 0.0012 μM): −0.03 | Effect size (BIGL, HSA null model), MOLM-13 Cell Proliferation (Compound 51 0.001 μm + Midostaurin 0.006 μM): −0.02 | Effect size (BIGL, HSA null model), MOLM-13 Cell Proliferation (Compound 51 0.001 μm + Midostaurin 0.025 μM): 0.07 | Effect size (BIGL, HSA null model), MOLM-13 Cell Proliferation (Compound 51 0.001 μm + Midostaurin 0.05 μM): −0.06 | Effect size (BIGL, HSA null model), MOLM-13 Cell Proliferation (Compound 51 0.001 μm + Midostaurin 0.1 μM): −0.04 | Effect size (BIGL, HSA null model), MOLM-13 Cell Proliferation (Compound 51 0.001 μm + Midostaurin 0.5 μM): −0.02 | Effect size (BIGL, HSA null model), combination with Gilteritinib on MOLM-13 cell proliferation (Compound 51 0.001 μm, Gilteritinib 0.0005 μM): −0.01 | Effect size (BIGL, HSA null model), combination with Gilteritinib on MOLM-13 cell proliferation (Compound 51 0.001 μm, Gilteritinib 0.005 μM): −0.06 | Effect size (BIGL, HSA null model), combination with Gilteritinib on MOLM-13 cell proliferation (Compound 51 0.001 μm, Gilteritinib 0.01 μM): −0.1 | Effect size (BIGL, HSA null model), combination with Gilteritinib on MOLM-13 cell proliferation (Compound 51 0.001 μm, Gilteritinib 0.05 μM): −0.02 | Effect size (BIGL, HSA null model), combination with Gilteritinib on MOLM-13 cell proliferation (Compound 51 0.001 μm, Gilteritinib 0.1 μM): 0.02 | Effect size (BIGL, HSA null model), combination with Gilteritinib on MOLM-13 cell proliferation (Compound 51 0.001 μm, Gilteritinib 1 μM): −0.01 | Effect size (BIGL, HSA null model), MOLM-13 Cell Proliferation (Compound 51 0.01 μm + Decitabine 0.0015 μM): 0 | Effect size (BIGL, HSA null model), MOLM-13 Cell Proliferation (Compound 51 0.01 μm + Decitabine 0.015 μM): −0.09 | Effect size (BIGL, HSA null model), MOLM-13 Cell Proliferation (Compound 51 0.01 μm + Decitabine 0.15 μM): −0.16 | Effect size (BIGL, HSA null model), MOLM-13 Cell Proliferation (Compound 51 0.01 μm + Decitabine 1.5 μM): −0.05 | Effect size (BIGL, HSA null model), MOLM-13 Cell Proliferation (Compound 51 0.01 μm + Decitabine 3 μM): −0.02 | Effect size (BIGL, HSA null model), MOLM-13 Cell Proliferation (Compound 51 0.01 μm + Idarubicin 0.0005 μM): −0.35 | Effect size (BIGL, HSA null model), MOLM-13 Cell Proliferation (Compound 51 0.01 μm + Idarubicin 0.001 μM): −0.73 | Effect size (BIGL, HSA null model), MOLM-13 Cell Proliferation (Compound 51 0.01 μm + Idarubicin 0.0025 μM): −0.26 | Effect size (BIGL, HSA null model), MOLM-13 Cell Proliferation (Compound 51 0.01 μm + Idarubicin 0.005 μM): −0.11 | Effect size (BIGL, HSA null model), MOLM-13 Cell Proliferation (Compound 51 0.01 μm + Idarubicin 0.05 μM): 0.02 | Effect size (BIGL, HSA null model), MOLM-13 Cell Proliferation (Compound 51 0.01 μm + Idarubicin 0.5 μM): 0.02 | Effect size (BIGL, HSA null model), MOLM-13 Cell Proliferation (Compound 51 0.01 μm + Midostaurin 0.0012 μM): 0.01 | Effect size (BIGL, HSA null model), MOLM-13 Cell Proliferation (Compound 51 0.01 μm + Midostaurin 0.006 μM): −0.06 | Effect size (BIGL, HSA null model), MOLM-13 Cell Proliferation (Compound 51 0.01 μm + Midostaurin 0.025 μM): 0.1 | Effect size (BIGL, HSA null model), MOLM-13 Cell Proliferation (Compound 51 0.01 μm + Midostaurin 0.05 μM): −0.06 | Effect size (BIGL, HSA null model), MOLM-13 Cell Proliferation (Compound 51 0.01 μm + Midostaurin 0.1 μM): −0.04 | Effect size (BIGL, HSA null model), MOLM-13 Cell Proliferation (Compound 51 0.01 μm + Midostaurin 0.5 μM): −0.02 | Effect size (BIGL, HSA null model), combination with Gilteritinib on MOLM-13 cell proliferation (Compound 51 0.01 μm, Gilteritinib 0.0005 μM): 0.01 | Effect size (BIGL, HSA null model), combination with Gilteritinib on MOLM-13 cell proliferation (Compound 51 0.01 μm, Gilteritinib 0.005 μM): −0.08 | Effect size (BIGL, HSA null model), combination with Gilteritinib on MOLM-13 cell proliferation [1]: −0.25 | maxR call (synergy/antagonism), combination with Gilteritinib on MOLM-13 cell proliferation [1]: ** | Effect size (BIGL, HSA null model), combination with Gilteritinib on MOLM-13 cell proliferation (Compound 51 0.01 μm, Gilteritinib 0.05 μM): −0.09 | Effect size (BIGL, HSA null model), combination with Gilteritinib on MOLM-13 cell proliferation (Compound 51 0.01 μm, Gilteritinib 0.1 μM): 0.1 | Effect size (BIGL, HSA null model), combination with Gilteritinib on MOLM-13 cell proliferation (Compound 51 0.01 μm, Gilteritinib 1 μM): −0.01 | Effect size (BIGL, HSA null model), MOLM-13 Cell Proliferation (Compound 51 0.05 μm + Decitabine 0.0015 μM): −0.03 | Effect size (BIGL, HSA null model), MOLM-13 Cell Proliferation [2]: −0.13 | Synergy/antagonism call (maxR test), MOLM-13 Cell Proliferation [2]: ** | Effect size (BIGL, HSA null model), MOLM-13 Cell Proliferation [3]: −0.32 | Synergy/antagonism call (maxR test), MOLM-13 Cell Proliferation [3]: ** | Effect size (BIGL, HSA null model), MOLM-13 Cell Proliferation (Compound 51 0.05 μm + Decitabine 1.5 μM): −0.05 | Effect size (BIGL, HSA null model), MOLM-13 Cell Proliferation (Compound 51 0.05 μm + Decitabine 3 μM): −0.03 | Effect size (BIGL, HSA null model), MOLM-13 Cell Proliferation (Compound 51 0.05 μm + Idarubicin 0.0005 μM): −0.1 | Effect size (BIGL, HSA null model), MOLM-13 Cell Proliferation [4]: −0.41 | Synergy/antagonism call (maxR test), MOLM-13 Cell Proliferation [4]: ** | Effect size (BIGL, HSA null model), MOLM-13 Cell Proliferation (Compound 51 0.05 μm + Idarubicin 0.0025 μM): −0.23 | Effect size (BIGL, HSA null model), MOLM-13 Cell Proliferation (Compound 51 0.05 μm + Idarubicin 0.005 μM): −0.11 | Effect size (BIGL, HSA null model), MOLM-13 Cell Proliferation (Compound 51 0.05 μm + Idarubicin 0.05 μM): 0.02 | Effect size (BIGL, HSA null model), MOLM-13 Cell Proliferation (Compound 51 0.05 μm + Idarubicin 0.5 μM): 0.02 | Effect size (BIGL, HSA null model), MOLM-13 Cell Proliferation (Compound 51 0.05 μm + Midostaurin 0.0012 μM): −0.03 | Effect size (BIGL, HSA null model), MOLM-13 Cell Proliferation [5]: −0.21 | Synergy/antagonism call (maxR test), MOLM-13 Cell Proliferation [5]: ** | Effect size (BIGL, HSA null model), MOLM-13 Cell Proliferation (Compound 51 0.05 μm + Midostaurin 0.025 μM): −0.14 | Effect size (BIGL, HSA null model), MOLM-13 Cell Proliferation (Compound 51 0.05 μm + Midostaurin 0.05 μM): 0.08 | Effect size (BIGL, HSA null model), MOLM-13 Cell Proliferation (Compound 51 0.05 μm + Midostaurin 0.1 μM): −0.04 | Effect size (BIGL, HSA null model), MOLM-13 Cell Proliferation (Compound 51 0.05 μm + Midostaurin 0.5 μM): −0.02 | Effect size (BIGL, HSA null model), combination with Gilteritinib on MOLM-13 cell proliferation (Compound 51 0.05 μm, Gilteritinib 0.0005 μM): −0.03
